Results reported in patent EP1099690A1, “MONOCYCLIC $g(b)-LACTAM COMPOUNDS AND CHYMASE INHIBITORS CONTAINING THE SAME” (SHIONOGI & CO., LTD., priority 1998, dated 2000).

Tests used:
human serine plasmin = target: T1, human serine plasmin (Homo sapiens, UniProt P00747); assay: Inhibitory activity on other serine proteases: Plasmin (Chromozyme PL); assay type: biochemical; conditions: for IC50: plasmin; for fold vs chymase: plasmin IC50 compared with IC50 value of chymase
T1 construct: purchased SIGMA
T1 sequence (P00747 581-810 limits assumed): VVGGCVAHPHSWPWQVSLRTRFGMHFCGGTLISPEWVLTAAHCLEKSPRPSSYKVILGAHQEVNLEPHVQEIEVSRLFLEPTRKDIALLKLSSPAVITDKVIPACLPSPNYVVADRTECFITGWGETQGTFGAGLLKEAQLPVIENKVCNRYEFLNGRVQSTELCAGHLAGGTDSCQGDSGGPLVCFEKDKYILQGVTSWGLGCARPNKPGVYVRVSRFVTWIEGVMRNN
T1 sequence (P00747 98-580 partner limits assumed): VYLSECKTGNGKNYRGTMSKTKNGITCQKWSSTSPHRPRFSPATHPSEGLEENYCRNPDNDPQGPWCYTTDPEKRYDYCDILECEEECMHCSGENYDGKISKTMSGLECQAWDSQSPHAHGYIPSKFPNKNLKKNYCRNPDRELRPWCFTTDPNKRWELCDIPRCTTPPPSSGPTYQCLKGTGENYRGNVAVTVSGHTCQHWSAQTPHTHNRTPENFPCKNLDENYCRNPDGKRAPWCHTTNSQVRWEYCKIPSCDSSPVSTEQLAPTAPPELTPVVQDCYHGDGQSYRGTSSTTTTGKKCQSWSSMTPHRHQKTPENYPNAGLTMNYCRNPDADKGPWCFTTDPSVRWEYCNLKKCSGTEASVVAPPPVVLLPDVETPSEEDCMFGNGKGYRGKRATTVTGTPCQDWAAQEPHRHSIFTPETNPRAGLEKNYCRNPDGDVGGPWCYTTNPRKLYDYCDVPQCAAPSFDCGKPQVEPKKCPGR
Description: The mixture of 10 µl of human serine plasmin (0.1 mg/ml in 1 mM HCl, 20 mM CaCl2, SIGMA), 80 µl of buffer (50mM Tris-HCl, pH 7.5, 50 mM NaCl) and 1 µl of the compound of the present invention (in DMSO) was incubated for 20 minutes at room temperature and for 10 minutes at 37 °C. The resultant mixture was reacted with 10 µl of a substrate (5 mM Chromozyme PL(TosGPKpNA, Boehringer Mannheim) in H2O) for about 30 minutes at 37 °C and the absorption intensity (405 nm) was measured.
(§1) The IC50 values of each serine protease are calculated and compared with IC50 value of chymase.

[1] = target: T2, human neutrophils elastase (Homo sapiens, UniProt P08246); assay: Inhibitory activity on other serine proteases: Elastase (sucAAVpNA); assay type: biochemical; conditions: for IC50: elastase; for fold vs chymase: elastase IC50 compared with IC50 value of chymase
T2 construct: human neutrophils elastase (0.02 mg/ml in 50 mM Tris-HCl, pH 7.0, 2 mM CaCl2, Athens research and technology); purchased Athens research and technology; host or cells: human neutrophils
T2 sequence (P08246 30-267): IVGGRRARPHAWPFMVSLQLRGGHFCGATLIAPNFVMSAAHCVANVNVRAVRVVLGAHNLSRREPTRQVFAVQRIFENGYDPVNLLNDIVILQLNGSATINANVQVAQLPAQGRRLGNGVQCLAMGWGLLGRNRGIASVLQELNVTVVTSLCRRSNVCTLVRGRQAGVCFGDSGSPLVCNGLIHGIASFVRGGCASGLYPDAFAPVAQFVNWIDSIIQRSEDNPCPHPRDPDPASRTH
Description: The mixture of 10 µl of human neutrophils elastase (0.02 mg/ml in 50 mM Tris-HCl, pH 7.0, 2 mM CaCl2, Athens research and technology), 80 µl of buffer (50mM Tris-HCl, pH 8.0, 2 mM CaCl2) and 1 µl of the compound of the present invention (in DMSO) was incubated for 20 minutes at room temperature and for 10 minutes at 37 °C. The resultant mixture was reacted with 10 µl of a substrate (5 mM sucAAVpNA (BACHEM Feinchemikalien AG) in 50 % DMSO) for about 30 minutes at 37 °C and the absorption intensity (405 nm) was measured.
as §1

human plasma thrombin = target: T3, human plasma thrombin (Homo sapiens, UniProt P00734); assay: Inhibitory activity on other serine proteases: Thrombin (Chromozyme TH); assay type: biochemical; conditions: for IC50: thrombin; for fold vs chymase: thrombin IC50 compared with IC50 value of chymase
T3 construct: human plasma thrombin (1 U/ml in 10 mM Mes, pH 6.0, 0.1 M NaCl, SIGMA); purchased SIGMA; host or cells: human plasma
Description: The mixture of 10 µl of human plasma thrombin (1 U/ml in 10 mM Mes, pH 6.0, 0.1 M NaCl, SIGMA), 80 µl of buffer (0.1 M Tris-HCl, pH 8.0, 10 mM CaCl2, 0.1 M NaCl) and 1 µl of the compound of the present invention (in DMSO) was incubated for 20 minutes at room temperature and for 10 minutes at 37 °C. The resultant mixture was reacted with 10 µl of a substrate (5 mM Chromozyme TH (TosGPRpNA, Boehringer Mannheim) in H2O) for about 60 minutes at 37 °C and the absorption intensity (405 nm) was measured.
as §1

Cathepsin G = target: T4, Cathepsin G (Homo sapiens, UniProt P08311); assay: Inhibitory activity on other serine proteases: Cathepsin G (sucAAPFpNA); assay type: biochemical; conditions: for IC50: Cathepsin G; for fold vs chymase: Cathepsin G IC50 compared with IC50 value of chymase
T4 construct: human purulent sputum cathepsin (1.7 µg/ml in 1 mM HCl, 20 mM CaCl2, CALBIOCHEM); purchased CALBIOCHEM; host or cells: human purulent sputum
T4 sequence (P08311 21-244): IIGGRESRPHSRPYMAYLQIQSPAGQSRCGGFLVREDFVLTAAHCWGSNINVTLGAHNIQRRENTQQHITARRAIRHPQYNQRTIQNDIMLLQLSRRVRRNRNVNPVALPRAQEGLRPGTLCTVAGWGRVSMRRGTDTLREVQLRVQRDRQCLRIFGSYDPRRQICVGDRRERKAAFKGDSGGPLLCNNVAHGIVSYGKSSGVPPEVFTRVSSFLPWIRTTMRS
Description: The mixture of 10 µl of human purulent sputum cathepsin (1.7 µg/ml in 1 mM HCl, 20 mM CaCl2, CALBIOCHEM), 80 µl of buffer (50mM Tris-HCl, pH 7.5, 5.2 mM CaCl2) and 1 µl of the compound of the present invention (in DMSO) was incubated for 20 minutes at room temperature and for 10 minutes at 37 °C. The resultant mixture was reacted with 10 µl of a substrate (5 mM sucAAPFpNA in DMSO, BACHEM Feinchemikalien AG) for about 60 minutes at 37 °C and the absorption intensity (405 nm) was measured.
as §1

bovine pancreas trypsin = target: T5, bovine pancreas trypsin (Bos taurus, UniProt P00760); assay: Inhibitory activity on other serine proteases: Trypsin (sucAAPRpNA); assay type: biochemical; conditions: for IC50: trypsin; for fold vs chymase: trypsin IC50 compared with IC50 value of chymase
T5 construct: bovine pancreas trypsin (1.5 µg/ml in 1 mM HCl, 20 mM CaCl2, SIGMA); purchased SIGMA; host or cells: bovine pancreas
T5 sequence (P00760 24-246): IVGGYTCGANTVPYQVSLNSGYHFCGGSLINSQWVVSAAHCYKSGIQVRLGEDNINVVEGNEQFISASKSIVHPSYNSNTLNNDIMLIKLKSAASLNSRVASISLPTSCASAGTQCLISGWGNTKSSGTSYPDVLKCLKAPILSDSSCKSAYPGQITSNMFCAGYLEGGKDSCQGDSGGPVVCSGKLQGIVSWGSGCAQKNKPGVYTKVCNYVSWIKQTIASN
Description: The mixture of 10 µl of bovine pancreas trypsin (1.5 µg/ml in 1 mM HCl, 20 mM CaCl2, SIGMA), 80 µl of buffer (50mM Tris-HCl, 2 mM CaCl2 pH 8.0) and 1 µl of the compound of the present invention (in DMSO) was incubated for 20 minutes at room temperature and for 10 minutes at 37 °C. The resultant mixture was reacted with 10 µl of a substrate (5 mM sucAAPRpNA (BACHEM Feinchemikalien AG) in 50 % DMSO) for about 60 minutes at 37 °C and the absorption intensity (405 nm) was measured.
as §1

human chymase = target: T6, human chymase (Homo sapiens, UniProt P23946); assay: Chymase inhibitory activity (Suc-Ala-Ala-Pro-Phe-pNA substrate, absorption 405 nm); assay type: biochemical; conditions: purified human chymase, 30 minutes at 37 °C preincubation, substrate 0.5 mM
T6 sequence (P23946 22-247): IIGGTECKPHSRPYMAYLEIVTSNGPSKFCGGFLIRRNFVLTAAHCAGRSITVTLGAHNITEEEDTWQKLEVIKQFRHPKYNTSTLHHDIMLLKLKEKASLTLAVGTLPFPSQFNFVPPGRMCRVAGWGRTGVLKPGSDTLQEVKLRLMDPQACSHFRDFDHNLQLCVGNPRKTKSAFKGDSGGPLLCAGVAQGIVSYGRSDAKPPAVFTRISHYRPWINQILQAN
Description: Compound (I) was dissolved in dimethylsulfoxide (DMSO) at 10^-2 M. Concentration of DMSO for activity measurement was 1 %.
Compound (I) dissolved in DMSO and purified human chymase (Takai et al., Clinica Chimica Acta 265, 1997, 13-20) were added to a buffer (0.1M Tris-HCl, 1.8M NaCl pH8.0). After the mixture was treated for 30 minutes at 37 °C, Suc-Ala-Ala-Pro-Phe-pNA (BACHEM Feinchemikalien AG) was added at 0.5 mM as a substrate and the mixture was enzymatically reacted at 37 °C.
After the reaction, the absorption intensity (405 nm) of the solution was measured to calculate the inhibitory rate.

IL-6 = assay: Cytokine production inhibitory activity, Concanavalin A stimulated mononuclear cells, ELISA: IL-6; assay type: cell-based; conditions: IL-6 in culture supernatant, Concanavalin A 5 µg/ml, forty-eight hours
Description: (§2) After human blood obtained in heparinized tube was layered on the Filcoll - Hypaque mixed solution (density=1.114, mono-poly separation solution, Dainippon Pharmaceutical Co., Ltd.), it was centrifuged to prepare mononuclear cells. The obtained mononuclear cells were suspended in a medium (Macrophage-SFM:GIBCO) to adjust 2 X 10^6 cells/ml and cultivated in 48-well plates. Ten minutes later addition of the compound of the present invention, Concanavalin A (5 µg/ml) was added to stimulate cells. After forty-eight hours, IL-1β, IL-2, IL-4, IL-5, IL-6, TNF-α and IFNγ in the culture supernatant were quantified by ELISA method. The following kits were used for the quantification of these cytokines. • IL-1β: Quantikine(Trademark) Human IL-1β ELISA KIT (R&D system) • IL-2: Quantikine(Trademark) Human IL-2 ELISA KIT (R&D system) • IL-4: Quantikine(Trademark) Human IL-4 ELISA KIT (R&D system) • IL-5: Quantikine(Trademark) Human IL-5 ELISA KIT (R&D system) • IL-6: Quantikine(Trademark) Human IL-6 ELISA KIT (R&D system) • TNF-α: Quantikine(Trademark) Human TNF-α ELISA KIT (R&D system) • IFNγ: Quantikine(Trademark) Human IFNγ ELISA KIT (R&D system)

TNF-α = assay: Cytokine production inhibitory activity, Concanavalin A stimulated mononuclear cells, ELISA: TNF-α; assay type: cell-based; conditions: TNF-α in culture supernatant, human mononuclear cells, Concanavalin A 5 µg/ml, forty-eight hours
Description: as §2

IL-4 = assay: Cytokine production inhibitory activity, Concanavalin A stimulated mononuclear cells, ELISA: IL-4; assay type: cell-based; conditions: IL-4 in culture supernatant, Concanavalin A 5 µg/ml, forty-eight hours
Description: as §2

IL-1β = assay: Cytokine production inhibitory activity, Concanavalin A stimulated mononuclear cells, ELISA: IL-1β; assay type: cell-based; conditions: IL-1β in culture supernatant, human mononuclear cells, Concanavalin A 5 µg/ml, forty-eight hours
Description: as §2

IFNγ = assay: Cytokine production inhibitory activity, Concanavalin A stimulated mononuclear cells, ELISA: IFNγ; assay type: cell-based; conditions: IFNγ in culture supernatant, Concanavalin A 5 µg/ml, forty-eight hours
Description: as §2

IL-2 = assay: Cytokine production inhibitory activity, Concanavalin A stimulated mononuclear cells, ELISA: IL-2; assay type: cell-based; conditions: IL-2 in culture supernatant, Concanavalin A 5 µg/ml, forty-eight hours
Description: as §2

IL-5 = assay: Cytokine production inhibitory activity, Concanavalin A stimulated mononuclear cells, ELISA: IL-5; assay type: cell-based; conditions: IL-5 in culture supernatant, human mononuclear cells, Concanavalin A 5 µg/ml, forty-eight hours
Description: as §2

Compound: CCOc1ccccc1C[C@@H]1C(=O)N(C(=O)NC(c2ccc(C)cc2)c2ccc(C)cc2)[C@H]1Oc1ccc(C(=O)O)cc1 [Compound I-158]
- IC50 (human serine plasmin): > 100 µM
- fold vs chymase (human serine plasmin): >10000
- IC50 [1]: 25 µM
- fold vs chymase [1]: 3000
- IC50 (human plasma thrombin): > 100 µM
- fold vs chymase (human plasma thrombin): >10000
- IC50 (Cathepsin G): 0.143 µM
- fold vs chymase (Cathepsin G): 17
- IC50 (bovine pancreas trypsin): 6.2 µM
- fold vs chymase (bovine pancreas trypsin): 760
- IC50 (human chymase): 0.0082 µM

Compound: CC(NC(=O)N1C(=O)C(Cc2ccccc2)C1Oc1ccc(C(=O)N2CCN(C)CC2)cc1)c1ccccc1 (stereo not shown) [Compound I-39, 3-Benzyl-2-[4-(4-methyl-piperazine-1-carbonyl)-phenoxy]-4-oxo-azetidine-1-carboxylic acid (1-phenyl-ethyl)-amide]
- IC50 (IL-6; Homo sapiens): 6.4 µM
- IC50 (TNF-α): 1.9 µM
- IC50 (IL-4; Homo sapiens): 11.7 µM
- IC50 (IL-1β): 2.7 µM
- IC50 (IFNγ; Homo sapiens): 12.1 µM
- IC50 (IL-2; Homo sapiens): 2.7 µM
- IC50 (human chymase): 0.00046 µM
- IC50 (IL-5): 6.5 µM

Compound: CC(NC(=O)N1C(=O)C(Cc2ccccc2)C1Oc1ccc(C(=O)N2CCN(C)CC2)cc1)c1ccccc1 (stereo not shown) [Compound I-62, 3-Benzyl-2-[4-(4-methyl-piperazine-1-carbonyl)-phenoxy]-4-oxo-azetidine-1-carboxylic acid (1-phenyl-ethyl)-amide]
- IC50 (IL-6; human mononuclear cells): 9.3 µM
- IC50 (TNF-α): 6.8 µM
- IC50 (IL-4; human mononuclear cells): 20.2 µM
- IC50 (IL-1β): 11.3 µM
- IC50 (IFNγ; human mononuclear cells): 17.1 µM
- IC50 (IL-2; human mononuclear cells): 2.4 µM
- IC50 (human chymase): 0.00017 µM
- IC50 (IL-5): 13.9 µM

Compound: CCOc1ccccc1CC1C(=O)N(C(=O)NC(c2ccccc2)c2ccccc2)C1Oc1ccc(C(=O)O)cc1 (stereo not shown) [Compound I-144, 4-[1-(Benzhydryl-carbamoyl)-3-(2-ethoxy-benzyl)-4-oxo-azetidin-2-yloxy]-benzoic acid]
- IC50 (human serine plasmin): > 10 µM
- fold vs chymase (human serine plasmin): >3000
- IC50 [1]: > 100 µM
- fold vs chymase [1]: >30000
- IC50 (human plasma thrombin): > 100 µM
- fold vs chymase (human plasma thrombin): >30000
- IC50 (Cathepsin G): 0.0354 µM
- fold vs chymase (Cathepsin G): 11
- IC50 (bovine pancreas trypsin): 25 µM
- fold vs chymase (bovine pancreas trypsin): 8000
- IC50 (human chymase): 0.0031 µM

Compound: COc1ccccc1C[C@@H]1C(=O)N(C(=O)N[C@@H](C)c2ccccc2)[C@@H]1Oc1ccc(C(=O)N2CCN(C)CC2)cc1 [Compound I-134]
- IC50 (human chymase): 0.0001 µM

Compound: C[C@@H](NC(=O)N1C(=O)[C@@H](Cc2ccccc2)[C@@H]1Oc1ccc(C(=O)N(C)CCN(C)C)cc1)c1ccccc1 [Compound I-38]
- IC50 (human chymase): 0.0022 µM

Compound: COc1ccccc1C[C@@H]1C(=O)N(C(=O)N[C@H](C)c2ccccc2)[C@H]1Oc1ccc(C(=O)N2CCN(C3CCCCC3)CC2)cc1 [Compound I-108]
- IC50 (human chymase): 0.00048 µM

Compound: C[C@@H](NC(=O)N1C(=O)[C@@H](Cc2ccccc2)[C@@H]1Oc1cccc(C(=O)O)c1)c1ccccc1 [Compound I-55]
- IC50 (human chymase): 0.017 µM

Compound: C[C@@H](NC(=O)N1C(=O)[C@@H](Cc2ccccc2)[C@H]1Oc1ccc(C(=O)N2CCOCC2)cc1)c1ccccc1 [Compound I-67]
- IC50 (human chymase): 0.00018 µM
